The values that follow come from patent US20130296425A1, “PROPHYLACTIC OR THERAPEUTIC AGENT FOR A PERIPHERAL NERVE DISORDER INDUCED BY ANTI-CANCER AGENTS” (NAGOYA INDUSTRIAL SCIENCE RESEARCH INSTITUTE, priority 2011, published 2013).

Experiment [1] has as its system paclitaxel-induced peripheral nerve disorder rats. The experiment can be described thus: Repeated intraperitoneal administration, hyperalgesia by paclitaxel (von Frey test). The format is in vivo, rat. The method, then: (§1) With regard to male SD rats of six weeks age used as the experimental animals, their 50% reaction threshold values to the mechanical stimulus (the measuring method will be mentioned later) and body weights were measured and then the following seven groups each comprising eight rats was organized. • Normal control group • Onset control group • Prophylactic administration group with 0.25 mg/kg/day of a test drug • Prophylactic administration group with 0.50 mg/kg/day of a test drug • Therapeutic administration group with 0.25 mg/kg/day of a test drug • Therapeutic administration group with 0.50 mg/kg/day of a test drug • Therapeutic administration group with 30 mg/kg/day of gabapentin (positive control)
Taxol (registered trademark) injection 30 mg (manufactured by Bristol-Myers Squibb) containing 6 mg/mL of paclitaxel was used. To the rats of each of the above groups except the normal control group was intraperitoneally administered paclitaxel diluted to 2 mg/mL with saline in a dose of 2 mg/kg four times every other day whereupon the paclitaxel-induced peripheral nerve disorder rats were prepared. To the normal control group, an equivalent mixture of ethanol and Cremophor EL (registered trademark; manufactured by Sigma; a solvent for Taxisol (registered trademark) injection) diluted with saline to an extent of 3-fold was administered similarly.
To prophylactic administration groups of a test drug, the compound 4 in a dose of 0.25 mg/kg/day or 0.50 mg/kg/day was repeatedly administered intraperitoneally since immediately after initiation of administration of paclitaxel until 13 days thereafter. Meanwhile, to therapeutic administration groups of a test drug and to a therapeutic administration group of gabapentin, the compound 4 in a dose of 0.25 mg/kg/day or 0.50 mg/kg/day or gabapentin in a dose of 30 mg/kg/day, respectively was repeatedly administered intraperitoneally during the period of from 14 days to 42 days after initiation of the administration of paclitaxel.
The seven groups of rats of the above (1) were placed in a transparent acrylic cage with a wire-meshed floor and habituated for about three minutes and the 50% reaction threshold values to the mechanical stimulus of right hind limb were measured after 3, 7, 14, 21, 28, 35 and 42 days from initiation of the administration of paclitaxel. Incidentally, during the period of administration of a test drug, its values were measured after 24 hours from the last administration of a test drug.
The measurement was conducted using von Frey filaments (manufactured by North Coast Medical Inc.) in accordance with the methods of Chaplan, et al. (Journal of Neuroscience Methods, vol. 53, no. 1, pages 55 to 63, 1994) and Dixon, et al. (Annual Review of Pharmacology and Toxicology, vol. 20, pages 441 to 462, 1980). […] The case where the rat escaped at the instance of removing the filament was also called positive. When the positive reaction was noted, stimulus was conducted similarly using a filament of one rank weaker while, when no reaction was noted, stimulus was conducted similarly using a filament of one rank stronger and the point when the reaction changed from negative to positive or from positive to negative was called the first two reactions. […] A 50% reaction threshold value to the mechanical stimulus was measured using the reaction to the six stimuli in total and then (mean value) ± (standard error) for each group was calculated. […]

Experiment [2] has as its system oxaliplatin-induced peripheral nerve disorder rats. Nature of the experiment: Repeated intraperitoneal administration, hyperalgesia by oxaliplatin (von Frey test). The format is in vivo, rat. The method, then:
as §1, with “to” for “to the”, “stimulus” for “stimulus (the measuring method will be mentioned later)”, “comprising 8” for “comprising eight”, “with 10” for “with 30”, “of pregabalin” for “of gabapentin”
To the rats of each of the above groups except the normal control group was intraperitoneally administered an oxaliplatin solution dissolved in glucose injection to an extent of 4 mg/mL in a dose of 4 mg/kg twice weekly for four weeks being eight times in total whereupon the oxaliplatin-induced peripheral nerve disorder rats were prepared. To the normal control group, glucose injection was administered similarly.
To prophylactic administration groups of a test drug, a test drug (the compound 4) in a dose of 0.25 mg/kg/day or 0.50 mg/kg/day was repeatedly administered intraperitoneally since immediately after initiation of administration of oxaliplatin until 27 days thereafter. Meanwhile, to a therapeutic administration group of a test drug and to a therapeutic administration group of pregabalin, a test drug (the compound 4) in a dose of 0.25 mg/kg/day or 0.50 mg/kg/day was repeatedly administered intraperitoneally during the period of from 14 days to 27 days after initiation of the administration of oxaliplatin and, pregabalin was administered orally in repeated dose of 10 mg/kg/day during the same period.
A von Frey test was conducted in the same manner as in the above 1.[1](4) using the seven groups of rats mentioned in the above (1). 50% reaction threshold values in each group were measured before initiating the administration of oxaliplatin and after 7, 14, 21, 28, 33 and 40 days from the initiation of the administration. Mean value ± standard error for each group was calculated and the test for significant difference was conducted in the same manner as in the above 1.[1](4).

As for `CCCCCCC/C=C/C(=O)OCC` [Compound 4, Trans-2-decenoic acid ethyl ester], the “effect of suppressing the hyperalgesia after completion of the repeated administration” value in experiment [1] (paclitaxel model, repeated i.p. 0.25 or 0.50 mg/kg/day) is reported as “still continued”; in experiment [2] (oxaliplatin model, repeated i.p. 0.25 or 0.50 mg/kg/day) it was “still continued”. Also, the “50% reaction threshold values to the mechanical stimulus vs onset control group” value in experiment [1] (prophylactic i.p. 0.5 mg/kg/day until 13 days, from 14 days to 28 days after initiation of paclitaxel, male SD rats) is “significantly high”; in experiment [1] (therapeutic i.p. 0.25 mg/kg/day (days 14-42), from 21 days to 35 days after paclitaxel) it was “significantly high”; in experiment [1] (therapeutic i.p. 0.5 mg/kg/day (days 14-42), after 28 days from paclitaxel), “significantly high”; in experiment [2] (prophylactic i.p. 0.25 mg/kg/day until 27 days, from 21 days to 28 days after oxaliplatin), “significantly high”; in experiment [2] (prophylactic i.p. 0.5 mg/kg/day until 27 days, from 21 days to 33 days after oxaliplatin) it was “significantly high”; in experiment [2] (therapeutic i.p. 0.25 mg/kg/day (days 14-27), after 28 days from oxaliplatin), “significantly high”. Moreover, in experiment [2] (therapeutic i.p. 0.5 mg/kg/day (days 14-27), from 21 days to 33 days after oxaliplatin), the “50% reaction threshold values to the mechanical stimulus vs onset control group” value is recorded as “significantly high”.
